Test results: patent US9062028B2, “Bicyclic nitrogen containing heteroaryl TGR5 receptor modulators” (Bristol-Myers Squibb Company, priority 2011, dated 2015)
Counter-ions that a name gives are not always drawn.

Target: T1, recombinant human TGR5 (Homo sapiens, UniProt Q8TDU6)
T1 construct: expressed in transfected cells
T1 sequence (Q8TDU6 1-330): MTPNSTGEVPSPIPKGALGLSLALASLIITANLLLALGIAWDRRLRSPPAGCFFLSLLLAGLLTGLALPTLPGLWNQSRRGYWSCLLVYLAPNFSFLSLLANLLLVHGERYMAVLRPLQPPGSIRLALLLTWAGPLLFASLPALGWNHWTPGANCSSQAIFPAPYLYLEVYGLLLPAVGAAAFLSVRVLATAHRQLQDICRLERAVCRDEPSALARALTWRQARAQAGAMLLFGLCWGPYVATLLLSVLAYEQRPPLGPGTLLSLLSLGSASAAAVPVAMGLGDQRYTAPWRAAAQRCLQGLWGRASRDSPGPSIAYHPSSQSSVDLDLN
Test: cAMP assay (cAMP accumulation, HTRF) in CHOK1 cells stably expressing TGR5
Assay type: cell-based
Conditions: CHOK1 cells stably expressing human TGR5, 30 minutes at RT, 1% DMSO
Method in brief: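 Agonist-induced cAMP accumulation: stable TGR5-CHOK1 cells treated 30 min at RT with compound (1% DMSO) plus 0.1 mM IBMX. HTRF ratio converted to nM cAMP via standard curve; EC50 from four-parameter logistic fit, midpoint between baseline and maximum.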

Row | Structure (SMILES) | EC50 [nM]
1 | Cc1cccc(OCCCC(=O)N2CCCc3c(-c4cccc(COC(=O)NCC(C)C(=O)O)c4)cccc32)c1C (stereo not shown) [Example 270, 3-((3-(1-(4-(2,3-Dimethylphenoxy)butanoyl)-1,2,3,4-tetrahydroquinolin-5-yl)benzyloxy)carbonylamino)-2-methylpropanoic acid] | 608
2 | Cc1c(Cl)cccc1OCCCC(=O)N1CCCOc2c(-c3cnn(Cc4cccc(NS(=O)(=O)c5cccc(C(=O)O)c5)c4)c3)cccc21 [Example 506, 3-(N-(3-((4-(5-(4-(3-Chloro-2-methylphenoxy)butanoyl)-2,3,4,5-tetrahydrobenzo [b][1,4]oxazepin-9-yl)-1H-pyrazol-1-yl)methyl)phenyl)sulfamoyl) benzoic acid] | 1610
3 | Cc1cccc(OCCCC(=O)N2CC3CC3c3c(-c4cnn(Cc5c(F)cc(C(=O)NCCC(=O)O)cc5Cl)c4)cccc32)c1C (stereo not shown) [Example 69E, 3-(3-Chloro-4-((4-(3-(4-(2,3-dimethylphenoxy)butanoyl)-1a,2,3,7b-tetrahydro-1H-cyclopropa[c]quinolin-7-yl)-1H-pyrazol-1-yl)methyl)-5-fluorobenzamido)propanoic acid] | 45
4 | Cc1cccc(OCCCC(=O)N2CCCc3c(-c4ccn(Cc5cccc(C(=O)NCCS(=O)(=O)O)c5)c4)cccc32)c1C [Example 168N] | 4370
5 | Cc1c(OCCCC(=O)N2CCCc3c(-c4cnn(Cc5cccc(C(=O)O)c5)c4)cccc32)cccc1C(F)(F)F [Example 32, 3-((4-(1-(4-(2-Methyl-3-(trifluoromethyl)phenoxy)butanoyl)-1,2,3,4-tetrahydroquinolin-5-yl)-1H-pyrazol-1-yl)methyl)benzoic acid] | 586
6 | Cc1cccc(OCCCC(=O)N2CCCc3c(-c4cnn(Cc5cccc(C(=O)N(CC(=O)O)CC(=O)O)c5)c4)cccc32)c1C [Example 475, 2,2′-(3-((4-(1-(4-(2,3-Dimethylphenoxy)butanoyl)-1,2,3,4-tetrahydroquinolin-5-yl)-1H-pyrazol-1-yl)methyl)benzoylazanediyl)diacetic acid] | 2600
7 | Cc1cccc(OCCCC(=O)N2CCCc3c(-c4cnn(Cc5cccc(C(=O)N(C)[C@@H](CC(=O)O)C(=O)O)c5)c4)cccc32)c1C [Example 481, (S)-2-(3-((4-(1-(4-(2,3-Dimethylphenoxy)butanoyl)-1,2,3,4-tetrahydroquinolin-5-yl)-1H-pyrazol-1-yl)methyl)-N-methylbenzamido)succinic acid] | 1530
8 | Cc1cccc(OCCCC(=O)N2CCCc3c(-c4cnn(Cc5cccc(S(=O)(=O)N[C@@H](CCC[N+](C)(C)C)C(=O)O)c5)c4)cccc32)c1C [Example 507, (S)-4-Carboxy-4-(3-((4-(1-(4-(2,3-dimethylphenoxy)butanoyl)-1,2,3,4-tetrahydroquinolin-5-yl)-1H-pyrazol-1-yl)methyl)phenyl-sulfonamido)-N,N, N-trimethylbutan-1-aminium] | 2110
9 | Cc1cccc(OCCCC(=O)N(C)c2cccc(-c3cnn(Cc4cccc(C(=O)O)c4)c3)c2)c1C [Example 339, 3-((4-(3-(4-(2,3-Dimethylphenoxy)-N-methylbutanamido)phenyl)-1H-pyrazol-1-yl)methyl) benzoic acid] | 2580
10 | Cc1cccc(CCOCC(=O)N2CCCc3c(-c4cnn(Cc5cccc(C(=O)O)c5)c4)cccc32)c1C [Example 15, 3-((4-(1-(2-(2,3-Dimethylphenethoxy)acetyl)-1,2,3,4-tetrahydroquinolin-5-yl)-1H-pyrazol-1-yl)methyl)benzoic acid] | 5900
11 | Cc1cccc(OCCCC(=O)N2CCCc3c(-c4cnn(Cc5c(F)cc(C(=O)NCCC(=O)O)cc5Cl)c4)cccc32)c1C [Example 176, 3-(3-Chloro-4-((4-(1-(4-(2,3-dimethylphenoxy)butanoyl)-1,2,3,4-tetrahydroquinolin-5-yl)-1H-pyrazol-1-yl)methyl)-5-fluorobenzamido) propanoic acid] | 47
12 | Cc1cccc(OCCCC(=O)N2CCCc3c(-c4cccc(COC(=O)NCC(F)(F)C(=O)O)c4)cccc32)c1C [Example 297, 3-((3-(1-(4-(2,3-Dimethylphenoxy)butanoyl)-1,2,3,4-tetrahydroquinolin-5-yl)benzyloxy)carbonylamino)-2,2-difluoropropanoic acid] | 687
13 | Cc1cccc(OCCCC(=O)N2CCCOc3c(-c4cnn(Cc5ccc(C(=O)NCCC(=O)O)cc5)c4)cccc32)c1C [Example 142, 3-(4-((4-(5-(4-(2,3-Dimethylphenoxy)butanoyl)-2,3,4,5-tetrahydrobenzo[b][1,4]oxazepin-9-yl)-1H-pyrazol-1-yl)methyl)benzamido)propanoic acid] | 647
14 | Cc1c(Cl)cccc1OCCCC(=O)N1C[C@@H]2C[C@@H]2c2c(-c3cnn(Cc4cccc(N5C(=O)[C@H](CCC[N+](C)(C)C)N(C)C5=O)c4)c3)cccc21 [Example 352, 3-((S)-1-(3-((4-((1aR,7bS)-3-(4-(3-Chloro-2-methylphenoxy)butanoyl)-1a,2,3,7b-tetrahydro-1H-cyclopropa[c]quinolin-7-yl)-1H-pyrazol-1-yl)methyl)phenyl)-3-methyl-2,5-dioxoimidazolidin-4-yl)-N,N,N-trimethylpropan-1-aminium, TFA salt] | 196
15 | Cc1cccc(OCCCC(=O)N2CCCc3c(-c4cnn(Cc5ccc[n+](C)c5)c4)cccc32)c1C [Example 467, 3-((4-(1-(4-(2,3-Dimethylphenoxy)butanoyl)-1,2,3,4-tetrahydroquinolin-5-yl)-1H-pyrazol-1-yl)methyl)-1-methylpyridinium] | 2960
16 | Cc1cccc(NCCCC(=O)N2CCCc3c(-c4cnn(Cc5cccc(C(=O)O)c5)c4)cccc32)c1C [Example 934, 3-((4-(1-(4-(2,3-Dimethylphenylamino)butanoyl)-1,2,3,4-tetrahydroquinolin-5-yl)-1H-pyrazol-1-yl)methyl)benzoic acid, TFA salt] | 191
17 | Cc1cccc(OCCCC(=O)N2CCCc3c(-c4cnn(CC5(CNC(=O)NCCS(=O)(=O)O)CC5)c4)cccc32)c1C [Example 69J, 2-(3-((1-((4-(1-(4-(2,3-Dimethylphenoxy)butanoyl)-1,2,3,4-tetrahydroquinolin-5-yl)-1H-pyrazol-1-yl)methyl)cyclopropyl)methyl)ureido)ethanesulfonic acid] | 5000

Next, values leading:

Row | EC50 [nM] | Structure (SMILES)
18 | 46 | Cc1c(Cl)cccc1OCCCC(=O)N1CCSc2c(-c3cnn(Cc4cccc(C(=O)N[C@@H](CC(N)=O)C(=O)O)c4)c3)cccc21 [Example 614, (S)-4-Amino-2-(3-((4-(4-(4-(3-chloro-2-methylphenoxy)butanoyl)-3,4-dihydro-2H-benzo[b][1,4]thiazin-8-yl)-1H-pyrazol-1-yl)methyl)benzamido)-4-oxobutanoic acid]
19 | 186 | COC(=O)c1ccc(Cl)c(Cn2cc(-c3cccc4c3SCCN4C(=O)OCCOc3cccc(Cl)c3C)cn2)c1 [Example 367, 2-(3-Chloro-2-methylphenoxy)ethyl 8-(l-(2-chloro-5-(methoxycarbonyl)benzyl)-1H-pyrazol-4-yl)-2H-benzo[b][1,4]thiazine-4(3H)-carboxylate]
20 | 173 | Cc1cccc(OCCOC(=O)N2CCSc3c(-c4cnn(Cc5cccc(C(=O)NCCS(=O)(=O)O)c5)c4)cccc32)c1C [Example 597, 2-(3-((4-(4-((2-(2,3-Dimethylphenoxy)ethoxy)carbonyl)-3,4-dihydro-2H-benzo[b][1,4]thiazin-8-yl)-1H-pyrazol-1-yl)methyl)benzamido)ethanesulfonic acid]
21 | 42 | Cc1c(Cl)cccc1OCCCC(=O)N1CCSc2c(-c3cnn(Cc4cccc(C(=O)NCC(C)(C)O)c4)c3)cccc21 [Example 593, 3-((4-(4-(4-(3-Chloro-2-methylphenoxy)butanoyl)-3,4-dihydro-2H-benzo[b][1,4]thiazin-8-yl)-1H-pyrazol-1-yl)methyl)-N-(2-hydroxy-2-methylpropyl)benzamide]
22 | 38 | Cc1c(Cl)cccc1OCCCC(=O)N1C[C@@H]2C[C@@H]2c2c(-c3cnn(Cc4cccc(N)c4)c3)cccc21 [Example 924A, 1-((1aR,7bS)-7-(1-(3-Aminobenzyl)-1H-pyrazol-4-yl)-1a,2-dihydro-1H-cyclopropa[c]quinolin-3(7bH)-yl)-4-(3-chloro-2-methylphenoxy)butan-1-one, TFA salt]
23 | 46 | Cc1c(Cl)cccc1OCCCC(=O)N1CCCOc2c(-c3cnn(Cc4c(F)cc(C(=O)NCCS(=O)(=O)O)cc4Cl)c3)cccc21 [Example 703, 2-(3-Chloro-4-((4-(5-(4-(3-chloro-2-methylphenoxy)butanoyl)-2,3,4,5-tetrahydrobenzo[b][1,4]oxazepin-9-yl)-1H-pyrazol-1-yl)methyl)-5-fluorobenzamido)ethanesulfonic acid]
24 | 41 | Cc1c(Cl)cccc1OCCOC(=O)N1C[C@@H]2C[C@@H]2c2c(-c3cnn(Cc4cc(C(=O)NCC5(C(=O)O)CC5)ccc4Cl)c3)cccc21 [Example 699, 1-((4-Chloro-3-((4-((1aR,7bS)-3-((2-(3-chloro-2-methylphenoxy)ethoxy)carbonyl)-1a,2,3,7b-tetrahydro-1H-cyclopropa[c]quinolin-7-yl)-1H-pyrazol-1-yl)methyl)benzamido)methyl) cyclopropanecarboxylic acid]
25 | 40 | Cc1c(Cl)cccc1OCCCC(=O)N1CCSc2c(-c3cnn(Cc4cccc(C(=O)O)c4)c3)cccc21 [Example 354, 3-((4-(4-(4-(3-Chloro-2-methylphenoxy)butanoyl)-3,4-dihydro-2H-benzo[b] [1,4]thiazin-8-yl)-1H-pyrazol-1-yl)methyl)benzoic acid]
